Data set [1] deals with CYPs in pooled mouse liver microsomes (MLMs). In words: Chemical inhibition of 1′-hydroxyelemicin formation in liver microsomes. Format: in vitro ADME. The conditions noted are these: inhibitor 1 μM (CYP1A1/2); 50 μM elemicin; MLMs 0.5 mg/mL; 40 min.
The next data set has as its system C57BL/6J mice. The data set can be described thus: Experiment 5: alpha-naphthoflavone with elemicin in mice. To be noted: alpha-naphthoflavone 80 mg/kg/day i.p. + elemicin 500 mg/kg oral for 7 days. Format: in vivo, mouse.

Turning to `O=c1cc(-c2ccccc2)oc2c1ccc1ccccc12` [α-naphthoflavone], the “inhibitory effect against 1′-hydroxyelemicin generation” value in data set [1] was “relative higher inhibitory effects”. Besides, in the data set with C57BL/6J mice, the elemicin-induced hepatomegaly entry was “significantly alleviate”.

These data come from article PMC7397737 (Chemical research in toxicology, 2019).
